Laboratory results as given in PMC2813745, “A novel inhibitor of the PI3K/Akt pathway based on the structure of inositol 1,3,4,5,6-pentakisphosphate” (British Journal of Cancer, 2010).

Assays:
CAMK1 (CaMK1) = CAMK1 (CaMK1) (Homo sapiens, UniProt Q14012); test: SelectScreen kinase profiling: CAMK1; type: biochemical; conditions: 10 µM compound; [ATP] 100 µM
Method: Effect of the indicated compounds on the activity of various kinases was assessed by SelectScreen Kinase Profiling Service (Invitrogen-Life Technologies, Paisley, UK). Assays were performed using 1 μM of the tested compounds and ATP concentration as indicated in the corresponding tables. In the case of […] a screen using 10 μM of the compound was also carried out, as indicated in the corresponding table.

PC3 = test: Cell survival by cell counting, PC3; type: cell-based, human; conditions: PC3, 72 h
Method: (§1) Cells seeded in a 24-well plate were treated with the indicated compounds in serum free DMEM or DMEM containing 0.5% FBS (PC3). After 72 h, the number of surviving cells was assessed by manual cell counting or by using the cell counter CDA-500 (Sysmex, Milton Keynes, UK). Alternatively, after 48 h, the number of apoptotic cells was assessed by acridine orange/ethidium bromide assay as described ([Piccolo et al, 2004]; [Maffucci et al, 2005]). SRB test was carried out in SKOV-3 and PC3 seeded in 96-well plate (3800 cells per well or 5800 cells per well, respectively) after 72 h of treatment as described ([Cappella et al, 2001]).
(§2) The number of surviving cells was assessed by cell counting. Data are mean±s.e. of n=3 (A), n=6 (B), n=3 (C) and n=4 (D) independent experiments carried out in duplicate. ^*=P<0.01; ^**=P<0.05. […] After 72 h the number of surviving cells was assessed by SRB assay. Data are mean±s.e. of n=2 independent experiments.
(§3) Data are mean±s.e. of n=4 independent experiments carried out in duplicate. […] Data are mean±s.e. of n=5 independent experiments carried out in duplicate. […] In all cases (A–D), cells were treated for 72 h and the number of surviving cells was assessed by cell counting. […] In all cases (E, F), cells were treated for 72 h and the number of surviving cells was assessed by SRB assay and data are mean±s.e. of two experiments carried out in quadruplicate.

SKOV-3 [1] = test: Cell survival by cell counting, SKOV-3; type: cell-based, human; conditions: SKOV-3, 72 h
Method: as §1
(§4) The number of surviving cells was assessed by cell counting. Data are mean±s.e. of n=4 (A) and n=2 (B) independent experiments. ^**=P<0.05. […] The number of apoptotic cells was assessed by acridine orange/ethidium bromide assay. Data are mean±s.e. of three independent experiments. ^**=P<0.05.

[2] = tested on: almost 60 protein kinases; test: SelectScreen kinase profiling: all the other tested kinases of the panel; type: biochemical; conditions: 1 μM; all tested kinases other than PDK1 and mTOR
Method: Effect of the indicated compounds on the activity of various kinases was assessed by SelectScreen Kinase Profiling Service (Invitrogen-Life Technologies, Paisley, UK). Assays were performed using 1 μM of the tested compounds and ATP concentration as indicated in the corresponding tables. In the case of InsP5 a screen using 10 μM of the compound was also carried out, as indicated in the corresponding table.
None of the other polyphosphates had any significant effect (Table 1C). […] This is consistent with the detected inhibition of Thr308 phosphorylation in 2-O-Bn-InsP5-treated SKOV-3 and PC3 cells (Figure 1B and C) and 2-O-Bn-InsP5-treated mice (Figure 4D).

BxPc-3 = test: Cell survival by cell counting, BxPc-3; type: cell-based, human; conditions: BxPc-3, 72 h
Method: as §1, §2

SKOV-3 [3] = test: Acridine orange/ethidium bromide apoptosis assay, SKOV-3; type: cell-based, human; conditions: SKOV-3, acridine orange/ethidium bromide assay
Method: as §1, §4

MCF7 = test: Cell survival by cell counting, MCF7; type: cell-based, human; conditions: MCF7, 72 h, 20 nM 4-OH Tamoxifen, 50 μM 2-O-Bn-InsP5 alone or in combination
Method: as §1
Data are mean±s.e. of n=4 independent experiments carried out in duplicate. […] Data are mean±s.e. of n=5 independent experiments carried out in duplicate. […] Data are mean±s.e. of n=6 independent experiments carried out in duplicate. […] Data are mean±s.e. of n=2 independent experiments carried out in duplicate. In all cases (A–D), cells were treated for 72 h and the number of surviving cells was assessed by cell counting. […] In all cases (E, F), cells were treated for 72 h and the number of surviving cells was assessed by SRB assay and data are mean±s.e. of two experiments carried out in quadruplicate.

SKBR3 [4] = test: Cell survival by cell counting, SKBR3; type: cell-based, human; conditions: SKBR3, 72 h
Method: as §1, §4

MDA-MB-468 = test: Cell survival by cell counting, MDA-MB-468; type: cell-based, human; conditions: MDA-MB-468, 72 h
Method: as §1, §2, §3

SKBR3 [5] = test: Acridine orange/ethidium bromide apoptosis assay, SKBR3; type: cell-based, human
Method: as §1, §4

[6] = tested on: Akt phosphorylation in PC3; test: Akt activation by western blot in PC3; type: cell-based, human; conditions: PC3, 24 h, medium containing 0.5% FBS
Method: (§5) Akt activation was assessed by monitoring phosphorylation at its residues Ser473 and Thr308. Membranes were then stripped and re-probed with the indicated antibodies.

[7] = tested on: Akt phosphorylation at Ser473 and Thr308 in PC3 tumours; test: Akt phosphorylation in excised tumours (western blot); type: in vivo, nude athymic CD-1 nu/nu mice; conditions: single dose 50 mg kg^−1, tumours excised 24 h after treatment
Method: Animals were killed 24 h after treatment and tumour samples were collected and snap frozen. Frozen specimens of tumour tissue were homogenised with a Polytron homogeniser in a lysis buffer (ratio 1 : 1 w/v) containing 50 mM Tris-HCl (pH 7.4), 5 mM EDTA, 0.1% Nonidet NP-40, 250 mM NaCl, 50 mM NaF and proteases and phosphatase inhibitors. After centrifugation at 13 000 r.p.m. for 10 min at 4°C, 80 μg of protein was separated on SDS–PAGE and transferred to a polyvinylidene difluoride membrane (Millipore, MA, USA). Membranes were probed with the indicated antibodies.
The inositol compounds (12.5–25–50 mg kg^−1 day^−1) and vehicle (water) were given daily by intraperitoneal (i.p.) injections for 14 consecutive days (days 15–28). Tumour size was assessed twice weekly. (A, B) Tumour growth in 2-O-Bn-InsP5-treated mice (A) and InsP5-treated mice (B) compared with control group measured for the duration of the experiment. Results are expressed as mean±s.e. (C) Top: Table showing all P-values for the indicated doses of 2-O-Bn-InsP5 compared to controls at the indicated days of treatment (NS=not significant). […] The percentage of tumour weight inhibition (TWI%), the tumour growth delay (T−C) and the log cell kill (LCK) were calculated as described in the MATERIALS AND METHODS section. […] Phosphorylation of Akt at its residues Ser473 and Thr308 was assessed by using specific antibodies. […]

[8] = tested on: Akt phosphorylation at Ser473 and Thr308 in SKOV-3; test: Akt activation by western blot in SKOV-3; type: cell-based, human; conditions: SKOV-3, 8 h or 24 h, serum free medium
Method: as §5

ASPC1 = test: Cell survival by cell counting, ASPC1; type: cell-based, human; conditions: ASPC1, 72 h
Method: as §1, §2, §3

Sequence of CAMK1 (CaMK1) (Q14012 whole entry): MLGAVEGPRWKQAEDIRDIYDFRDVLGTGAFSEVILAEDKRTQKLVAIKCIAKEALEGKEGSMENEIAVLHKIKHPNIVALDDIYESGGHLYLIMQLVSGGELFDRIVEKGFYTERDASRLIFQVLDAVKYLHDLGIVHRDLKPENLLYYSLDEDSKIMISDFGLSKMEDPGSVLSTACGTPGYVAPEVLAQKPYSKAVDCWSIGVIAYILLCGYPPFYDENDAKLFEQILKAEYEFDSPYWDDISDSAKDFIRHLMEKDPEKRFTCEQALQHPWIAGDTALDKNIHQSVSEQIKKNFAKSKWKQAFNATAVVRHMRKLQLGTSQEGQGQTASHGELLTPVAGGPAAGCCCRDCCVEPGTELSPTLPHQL

SMILES | inhibition at 10 µM (CAMK1 (CaMK1)) [%] | number of surviving cells (PC3) | number of surviving cells (SKOV-3 [1]) | percentage of inhibition of all the other tested kinases [2] [%] | number of surviving cells (BxPc-3) | percentage of apoptotic cells (SKOV-3 [3]) | number of surviving cells (MCF7) | number of surviving cells (SKBR3 [4]) | number of surviving cells (MDA-MB-468) | percentage of apoptotic cells (SKBR3 [5]) | Akt phosphorylation [6] | Akt phosphorylation at residue Ser473 in tumours [7] | Akt phosphorylation at residue Thr308 in tumours [7] | Akt phosphorylation at residue Ser473 [8] | Akt phosphorylation at residue Thr308 [8] | number of surviving cells (ASPC1)
O=P(O)(O)OC1C(O)C(OP(=O)(O)O)C(OP(=O)(O)O)C(OP(=O)(O)O)C1OP(=O)(O)O (stereo not shown) [InsP5, inositol 1,3,4,5,6-pentakisphosphate] | -46 |  |  |  |  |  |  |  |  |  |  |  |  |  |  | 
O=P(O)(O)OC1C(OCc2ccccc2)C(OP(=O)(O)O)C(OP(=O)(O)O)C(OP(=O)(O)O)C1OP(=O)(O)O (stereo not shown) [2-O-Bn-InsP5, 2-O-benzyl-myo-inositol 1,3,4,5,6-pentakisphosphate] |  | stronger activity of 2-O-Bn-InsP5 compared with InsP5 | strongly reduced the number of surviving | < 40 | more potent than InsP5 at a concentration of 50 μM | percentage of apoptotic cells was higher in 2-O-Bn-InsP5-treated compared with InsP5-treated | little effect | strongly reduced the number of surviving | stronger activity of 2-O-Bn-InsP5 compared with InsP5 | percentage of apoptotic cells was higher in 2-O-Bn-InsP5-treated compared with InsP5-treated | able to block Akt phosphorylation | markedly reduced Akt phosphorylation at its residue Ser473 in all 2-O-Bn-InsP5-treated mice | clear inhibition of Akt phosphorylation at its residue Thr308 was detected in five out of seven | inhibited Akt phosphorylation at its residue Ser473 more efficiently than InsP5 in SKOV-3, being already active after 8 h of treatment and at a concentration of 20 μM | Inhibition of Akt phosphorylation at residue Thr308 was also detected | more active than InsP5 at almost all concentrations tested
